Test results as given in patent US20160168118A1, “N-(5-QUINOLIN-6-YL)PYRIDIN-3-YL) BENZSULFAMIDE DERIVATIVES, PREPARATION METHOD AND THERAPEUTIC USE THEREOF” (SECOND MILITARY MEDICAL UNIVERSITY, PLA, priority 2012, published 2016).
Converted amounts (≈) assume the structure as drawn. Where two headings read alike, the source gives them in different places.

What was measured:
[1] = In vivo pharmacokinetics in SD rats; settings: for AUC(0-t): read-out: AUC(0-24); for half-life / bioavailability: rat, plasma; for bioavailability: oral, rats, intragastric 20 mg/kg vs iv 2 mg/kg
Method: SD rats, male, 4-6 weeks old, weighing 200-220 g, the total number is 12, were purchased from Shanghai Slac laboratory animal limited liability company, animal production license number: SCXK (Shanghai) 2008-0016, the experimental animals using license number: SCXK (Shanghai) 2007-0005, certificate number: 2007000514232.
SD rats were randomly divided into two groups, numbered A and B, while 6 rats in each group, before the experiment starts, the rats were fasted 12 hours overnight, group A were tail vein injected with compound 9 by dose 2 mg/kg; group B were intragastric administrated with Compound 9 suspensions, of which the dose was calculated as 20 mg/kg;
Group A: tail intravenous injection (i.v.) administrated compound 9. Orbital blood 0.3 mL was taken on 0, 5, 10, 15, 30, 45, 60 min, 2 h, 3 h, 4 h, 6 h, 8 h, 12 h, and was placed in 1.5 mL EP tube coated with heparin, shaked up and down for 3 times, centrifuged at 3500 rpm for 5 min to get supernatant, and was kept in refrigerator at −20° C. to save backup;
Dose was 2 mg/kg (2.6 mL/kg), administered in a concentration of 770 μg/mL, which was dissolved with mixed aqueous solution of 9.4% ethanol and 24.5% isopropanol;
Group B: intragastric administration (i.g.), dose of 20 mg/kg, administered in a concentration of 1.5 mg/mL, and 3.75% Tween 80 was used to dissolve compound 9, gavage dose was (13.3 mL/kg);
Orbital blood 0.5 mL was taken at 0, 5, 10, 15, 30, 45, 60 min, 2 h, 3 h, 4 h, 6 h, 8 h, 12 h, 24 h, and was placed in 1.5 mL EP tube coated with heparin, shaked up and down for 3 times, centrifuged at 3500 rpm for 5 min to get supernatant, and kept in refrigerator at −20° C. to save backup.
Plasma sample 100 μL was precisely measured, put in 1.5 mL plastic centrifuge tube, 10 μL methanol and 190 μL methanol solution of compound 17 (internal standard) of 100.8 ng·mL^−1 were added, vortex mixed for 30 s, centrifuged at 12000r·min^−1 for 10 min, 200 μL supernatant was taken and put into the vial, 5 μL injected for HPLC-MS analysis.
Analytical conditions: column: SHISEIDO MG-C18 (100 mm×3.0 mm, 3.0 μm), mobile phase: acetonitrile: water (containing 0.1% formic acid=25:75 (V/V); flow rate: 0.8 mL·min^−1 analysis time 6 min, column temperature: 25° C., the injection volume: 5 μL, split ratio 2:1. The mass was in ESI source positive ion mode, the capillary voltage was 4000V, drying flow rate was 10 L/min, the atomizing air pressure was 40 psi, temperature of the drying gas was 350° C. Selective ion mode (SIM), the ion of compound 9 was [M+H] ions+m/z 561.2 and that of the internal standard compound 17 [M+H]+m/z 591.2, and the debris voltage was 70 eV.
The data gained were substituted into the accompanying standard curve, thus obtaining the drug concentration in rat plasma.
The pharmacokinetic parameters were analyzed by using non-compartmental model, the peak concentration Cmax and peak time Tmax were taken Found value, and the pharmacokinetic parameters were processed to obtain the pharmacokinetic parameters result of single dose.

[2] = system: PC3; experiment: NCI cytotoxicity test, PC3; format: cell-based; settings: Homo sapiens, PC-3
Source text: (§1) Cytotoxicity Test of Compound 9, 10 and 17 on 60 Kinds of Human Cancer Cell Lines from the US National Cancer Institute

[3] = target: PI3Kβ (Homo sapiens, UniProt P42338); experiment: ADP-Glo Luminescent Kinase Assay, PI3Kβ; format: biochemical; settings: read-out: IC50 on PI3K beta
[4] = target: PI3Kγ (Homo sapiens, UniProt P48736); experiment: ADP-Glo Luminescent Kinase Assay, PI3Kγ; format: biochemical; settings: read-out: IC50 on PI3K gamma
[5] = system: SN12C; experiment: NCI cytotoxicity test, SN12C; format: cell-based; settings: Homo sapiens
Source text: as §1

[6] = system: 60 kinds of human cancer cell lines; experiment: Cytotoxicity test on 60 kinds of human cancer cell lines from the US National Cancer Institute; format: cell-based
Source text: as §1

[7] = system: COLO205; experiment: NCI cytotoxicity test, COLO205; format: cell-based; settings: Homo sapiens, COLO 205
Source text: as §1

[8] = system: SF539; experiment: NCI cytotoxicity test, SF539; format: cell-based; settings: Homo sapiens, SF-539
Source text: as §1

[9] = target: PI3K delta (Homo sapiens, UniProt O00329); experiment: Kinase-Glo Luminescent Kinase Assay, PI3K delta; format: biochemical
[10] = system: HCT116 (human colon cancer cells); experiment: MTT assay, HCT116; format: cell-based; settings: HCT-116, 72 h
[11] = male, SD, iv, rat plasma, tail vein injection, 2 mg/kg
[12] = male, SD, po, rat plasma, intragastric administration, 20 mg/kg
[13] = rat plasma, intragastric administration, 20 mg/kg
[14] = rat plasma, tail vein injection, 2 mg/kg

Sequence of PI3Kγ (P48736 whole entry, species assumed): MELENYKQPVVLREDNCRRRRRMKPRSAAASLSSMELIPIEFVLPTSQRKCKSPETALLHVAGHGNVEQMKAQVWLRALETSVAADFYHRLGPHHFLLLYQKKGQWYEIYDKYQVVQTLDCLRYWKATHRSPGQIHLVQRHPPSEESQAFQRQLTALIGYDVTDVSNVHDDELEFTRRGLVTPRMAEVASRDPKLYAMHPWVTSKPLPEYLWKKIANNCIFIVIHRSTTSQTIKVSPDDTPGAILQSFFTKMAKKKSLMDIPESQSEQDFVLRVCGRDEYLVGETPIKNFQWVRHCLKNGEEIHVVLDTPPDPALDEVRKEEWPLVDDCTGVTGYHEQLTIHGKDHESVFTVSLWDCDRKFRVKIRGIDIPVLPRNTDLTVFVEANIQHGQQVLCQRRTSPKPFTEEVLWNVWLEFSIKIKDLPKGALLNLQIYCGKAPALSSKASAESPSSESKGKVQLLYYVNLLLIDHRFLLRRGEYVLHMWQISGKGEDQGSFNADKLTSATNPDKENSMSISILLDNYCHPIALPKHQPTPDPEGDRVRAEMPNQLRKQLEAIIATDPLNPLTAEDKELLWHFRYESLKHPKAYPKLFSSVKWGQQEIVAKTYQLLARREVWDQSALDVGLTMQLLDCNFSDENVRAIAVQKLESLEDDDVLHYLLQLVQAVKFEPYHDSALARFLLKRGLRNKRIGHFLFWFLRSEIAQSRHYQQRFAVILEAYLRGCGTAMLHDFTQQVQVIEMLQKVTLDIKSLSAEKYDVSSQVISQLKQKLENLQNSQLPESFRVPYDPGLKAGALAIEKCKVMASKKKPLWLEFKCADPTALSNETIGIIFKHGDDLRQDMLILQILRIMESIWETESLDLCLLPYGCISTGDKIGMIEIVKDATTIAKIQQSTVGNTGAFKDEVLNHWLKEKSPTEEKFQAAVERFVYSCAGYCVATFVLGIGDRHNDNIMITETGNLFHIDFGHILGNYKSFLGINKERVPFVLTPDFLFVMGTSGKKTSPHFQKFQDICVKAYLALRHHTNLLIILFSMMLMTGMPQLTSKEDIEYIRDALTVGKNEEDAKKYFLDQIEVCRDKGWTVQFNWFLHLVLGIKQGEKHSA
Sequence of PI3Kβ (P42338 whole entry, species assumed): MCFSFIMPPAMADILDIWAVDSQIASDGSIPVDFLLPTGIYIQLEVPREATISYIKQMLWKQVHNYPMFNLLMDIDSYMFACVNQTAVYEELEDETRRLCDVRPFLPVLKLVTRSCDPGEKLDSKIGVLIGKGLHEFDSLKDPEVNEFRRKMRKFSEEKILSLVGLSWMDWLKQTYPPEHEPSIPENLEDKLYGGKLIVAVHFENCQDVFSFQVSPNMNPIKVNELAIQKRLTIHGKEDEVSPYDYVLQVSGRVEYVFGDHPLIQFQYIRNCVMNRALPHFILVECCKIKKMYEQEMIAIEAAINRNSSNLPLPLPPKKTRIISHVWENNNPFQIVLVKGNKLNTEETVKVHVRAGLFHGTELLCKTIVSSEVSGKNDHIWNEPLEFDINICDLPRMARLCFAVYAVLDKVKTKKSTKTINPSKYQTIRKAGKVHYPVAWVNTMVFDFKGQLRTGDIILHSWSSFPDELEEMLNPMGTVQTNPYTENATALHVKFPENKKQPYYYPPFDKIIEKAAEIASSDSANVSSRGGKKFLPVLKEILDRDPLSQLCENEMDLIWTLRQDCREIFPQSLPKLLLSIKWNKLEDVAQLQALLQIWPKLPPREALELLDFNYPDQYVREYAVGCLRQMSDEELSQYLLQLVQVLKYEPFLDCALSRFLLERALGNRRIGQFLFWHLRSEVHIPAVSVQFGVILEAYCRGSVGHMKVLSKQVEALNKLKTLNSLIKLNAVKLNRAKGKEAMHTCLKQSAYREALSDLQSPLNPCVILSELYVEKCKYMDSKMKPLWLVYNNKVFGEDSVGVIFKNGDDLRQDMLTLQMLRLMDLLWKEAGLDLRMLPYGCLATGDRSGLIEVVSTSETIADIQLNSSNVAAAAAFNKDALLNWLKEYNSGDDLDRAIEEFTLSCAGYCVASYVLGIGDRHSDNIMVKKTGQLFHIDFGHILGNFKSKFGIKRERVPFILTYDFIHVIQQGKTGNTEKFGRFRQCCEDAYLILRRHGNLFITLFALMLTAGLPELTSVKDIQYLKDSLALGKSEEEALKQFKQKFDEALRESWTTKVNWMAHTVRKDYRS
Sequence of PI3Kβ (P27986 whole entry partner, species assumed): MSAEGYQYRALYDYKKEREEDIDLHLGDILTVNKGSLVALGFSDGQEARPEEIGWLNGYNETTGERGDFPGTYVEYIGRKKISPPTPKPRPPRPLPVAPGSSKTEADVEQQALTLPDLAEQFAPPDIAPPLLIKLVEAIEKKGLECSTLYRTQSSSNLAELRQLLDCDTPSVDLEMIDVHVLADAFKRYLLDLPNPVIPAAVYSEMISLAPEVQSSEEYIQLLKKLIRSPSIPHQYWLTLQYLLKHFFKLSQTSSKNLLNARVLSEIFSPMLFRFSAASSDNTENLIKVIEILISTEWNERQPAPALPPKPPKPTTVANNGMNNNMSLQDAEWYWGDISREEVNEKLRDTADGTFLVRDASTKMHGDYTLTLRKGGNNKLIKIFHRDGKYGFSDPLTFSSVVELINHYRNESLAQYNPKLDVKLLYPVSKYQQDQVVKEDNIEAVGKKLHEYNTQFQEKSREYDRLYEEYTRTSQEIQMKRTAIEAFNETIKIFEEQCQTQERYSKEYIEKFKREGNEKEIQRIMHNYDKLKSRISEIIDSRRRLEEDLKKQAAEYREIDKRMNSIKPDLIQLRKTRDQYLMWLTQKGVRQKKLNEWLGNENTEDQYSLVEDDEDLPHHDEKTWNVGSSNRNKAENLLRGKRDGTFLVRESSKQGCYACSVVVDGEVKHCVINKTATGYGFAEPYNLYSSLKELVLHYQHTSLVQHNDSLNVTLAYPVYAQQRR
Sequence of PI3K delta (O00329 whole entry): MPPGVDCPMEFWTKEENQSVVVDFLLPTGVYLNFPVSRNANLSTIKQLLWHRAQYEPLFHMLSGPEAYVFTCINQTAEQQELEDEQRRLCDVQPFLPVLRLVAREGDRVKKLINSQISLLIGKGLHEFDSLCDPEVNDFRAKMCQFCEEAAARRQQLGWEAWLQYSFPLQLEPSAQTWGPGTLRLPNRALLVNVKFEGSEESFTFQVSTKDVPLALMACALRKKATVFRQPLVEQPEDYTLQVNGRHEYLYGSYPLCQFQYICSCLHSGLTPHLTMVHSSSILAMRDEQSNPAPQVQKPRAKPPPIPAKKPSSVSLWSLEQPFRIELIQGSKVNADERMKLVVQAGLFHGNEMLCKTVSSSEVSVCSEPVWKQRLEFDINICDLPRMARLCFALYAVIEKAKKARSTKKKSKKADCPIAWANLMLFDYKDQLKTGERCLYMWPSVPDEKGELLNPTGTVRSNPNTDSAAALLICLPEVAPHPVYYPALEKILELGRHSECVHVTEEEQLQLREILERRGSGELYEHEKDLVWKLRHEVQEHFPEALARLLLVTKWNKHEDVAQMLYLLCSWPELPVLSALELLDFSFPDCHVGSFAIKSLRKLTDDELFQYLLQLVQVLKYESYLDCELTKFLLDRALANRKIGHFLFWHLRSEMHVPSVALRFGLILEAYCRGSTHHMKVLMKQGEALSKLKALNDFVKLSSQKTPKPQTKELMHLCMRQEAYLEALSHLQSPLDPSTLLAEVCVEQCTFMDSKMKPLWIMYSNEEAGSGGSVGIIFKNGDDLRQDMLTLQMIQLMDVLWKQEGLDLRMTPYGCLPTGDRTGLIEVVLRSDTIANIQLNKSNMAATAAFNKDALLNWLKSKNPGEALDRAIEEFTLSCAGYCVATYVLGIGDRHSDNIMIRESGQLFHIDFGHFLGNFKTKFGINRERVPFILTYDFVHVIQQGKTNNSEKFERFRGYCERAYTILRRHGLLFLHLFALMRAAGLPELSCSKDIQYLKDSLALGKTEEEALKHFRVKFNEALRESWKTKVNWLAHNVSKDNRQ
Sequence of PI3K delta (P27986 whole entry partner): as the sequence (P27986 whole entry partner, species assumed) above

Compound `COc1ncc(-c2ccc3nccc(-c4ccc(CN(C)C)cc4)c3c2)cc1NS(=O)(=O)c1ccc(F)cc1F` [Compound 9, N-(5-(4-(4-((dimethylamine)methyl)phenyl)quinolin-6-yl)-2-methoxypyridine-3-yl)-2,4-difluorobenzenesulfonamide] has an AUC [1, 11] of 3740 ng·h/mL, a Cmax [1, 11] of 999 ng/mL and an MRT [1, 11] of 8.54 h. It also gave a Vd [1, 11] of 5.05 L/kg, a clearance [1, 11] of 8.92 mL/min/kg and an AUC(0-t) [1, 11] of 3450 ng·h/mL. The AUC [1, 12] was 35600 ng·h/mL, the Cmax [1, 12] was 7120 ng/mL and the MRT [1, 12] was 6.46 h. For the same compound, the Tmax [1, 12] was 0.5 h, the AUC(0-t) [1, 12] was 34100 ng·h/mL and the half-life ([1]; male, SD, iv, 2 mg/kg, rat plasma, tail vein injection) was 6.55 h. For the same compound, the bioavailability ([1]; male, SD, 20 mg/kg, read-out: Absolute bioavailability F0-t) was 98.8%, the bioavailability ([1]; male, SD, 20 mg/kg, read-out: Absolute bioavailability F0-∞) was 95.2% and the half-life ([1]; male, SD, po, 20 mg/kg, rat plasma, intragastric administration) was 4.4 h. The AUMC [1, 13] was 230.2 μg/mL · h, the “AUMC(0-24)” value [1, 13] was 183.0 μg/mL · h and the k [1, 13] was 0.1573 h⁻¹. For the same compound, the t1/2 [1, 13] was 4.406 h, the AUMC [1, 14] was 31.95 μg/mL · h and the “AUMC(0-24)” value [1, 14] was 22.23 μg/mL · h. The k [1, 14] was 0.1063 h⁻¹, the GI50 [2] was under 10 nM and the IC50 [3] was 1.8 nM. The IC50 [4] was 1.5 nM, the GI50 [5] was under 10 nM and the GI50 ([6]; on the 35 tumor cell lines, read-out: average half growth inhibitory concentration (GI50)) was under 10 nM. For the same compound, the GI50 ([6]; on the 60 kinds of tumor cells, read-out: Average GI50) was 18.6 nM, the GI50 [7] was 13.5 nM and the GI50 [8] was 17 nM. The IC50 [9] was 3.8 nM and the IC50 [10] was 1.69 ng/mL (≈ 3.01 nM).
